# Laboratory results as given in PubChem BioAssay AID248 (DTP/NCI, 2004).
# Values joined by “and” are separate entries in the source; they are usually repeats but may differ in a detail not shown here. Equal values may be shown once. Toxic doses and inconclusive results are not listed.
# Tested on: L1210 leukemia ip in BDF1 mice, survival T/C
# Experiment: NCI In Vivo Anticancer Drug Screen. Data for tumor model L1210 Leukemia (intraperitoneal) in B6D2F1 (BDF1) mice
# Conditions: endpoint: mean survival time, higher = longer survival
# How it was run: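 Survival endpoint. Drug-treated group vs vehicle group, expressed as T divided by C. Tumor passaged by transplantation.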
# [1] = dose: 100.0 mg/kg/injection, schedule: Q01DX009 (ip), vehicle: Klucel (hydroxypropylcellulose) (HPC)
# [2] = dose: 100.0 mg/kg/injection, schedule: Q04DX003 (ip), vehicle: Klucel (hydroxypropylcellulose) (HPC)
# [3] = dose: 100.0 mg/kg/injection, schedule: Q04DX003 (ip), vehicle: saline with Tween-80
# [4] = dose: 200.0 mg/kg/injection, schedule: Q01DX009 (ip), vehicle: Klucel (hydroxypropylcellulose) (HPC)
# [5] = dose: 200.0 mg/kg/injection, schedule: Q01DX009 (ip), vehicle: saline with Tween-80
# [6] = dose: 200.0 mg/kg/injection, schedule: Q04DX003 (ip), vehicle: Klucel (hydroxypropylcellulose) (HPC)
# [7] = dose: 200.0 mg/kg/injection, schedule: Q04DX003 (ip), vehicle: saline with Tween-80
# [8] = dose: 400.0 mg/kg/injection, schedule: Q01DX009 (ip), vehicle: Klucel (hydroxypropylcellulose) (HPC)
# [9] = dose: 400.0 mg/kg/injection, schedule: Q01DX009 (ip), vehicle: saline with Tween-80
# [10] = dose: 400.0 mg/kg/injection, schedule: Q04DX003 (ip), vehicle: Klucel (hydroxypropylcellulose) (HPC)
# [11] = dose: 400.0 mg/kg/injection, schedule: Q04DX003 (ip), vehicle: saline with Tween-80
# [12] = dose: 100.0 mg/kg/injection, schedule: Q01DX001 (ip), vehicle: other
# [13] = dose: 200.0 mg/kg/injection, schedule: Q01DX009 (ip), vehicle: saline
compound,measurement,setting,value
C(=C/n1cnc2ccccc21)/c1ccccc1,T/C,"dose: 87.5 mg/kg/injection, schedule: Q04DX003 (ip), vehicle: Klucel (hydroxypropylcellulose) (HPC)",92 % of control
same,T/C,"dose: 175.0 mg/kg/injection, schedule: Q04DX003 (ip), vehicle: Klucel (hydroxypropylcellulose) (HPC)",96 % of control
same,T/C,"dose: 350.0 mg/kg/injection, schedule: Q04DX003 (ip), vehicle: Klucel (hydroxypropylcellulose) (HPC)",91 % of control
CC(C)(/C=N/N=C(N)N)CCC#N,T/C,"dose: 60.0 mg/kg/injection, schedule: Q01DX Z (oral), vehicle: saline",98 % of control
same,T/C,"dose: 120.0 mg/kg/injection, schedule: Q01DX Z (oral), vehicle: saline",109 % of control
same,T/C,"dose: 240.0 mg/kg/injection, schedule: Q01DX Z (oral), vehicle: saline",103 % of control
same,T/C,"dose: 480.0 mg/kg/injection, schedule: Q01DX Z (oral), vehicle: saline",94 % of control and 116 % of control
N#CC1c2ccccc2C=CN1C(=O)c1ccccc1 (stereo unspecified),T/C,"dose: 50.0 mg/kg/injection, schedule: Q01DX009 (ip), vehicle: saline with Tween-80",95 % of control
same,T/C,[1],92 % of control
same,T/C,[2],94 % of control
same,T/C,[3],97 % of control
same,T/C,[4],97 % of control
same,T/C,[5],93 % of control
same,T/C,[6],98 % of control
same,T/C,[7],94 % of control
same,T/C,[8],92 % of control
same,T/C,[9],95 % of control
same,T/C,[10],94 % of control
same,T/C,[11],96 % of control
OC1(C#[C][Hg][C]#CC2(O)CCCCC2)CCCCC1,T/C,[2],98 % of control
same,T/C,[6],100 % of control
O=[N+]([O-])c1ccc(N/N=C\c2ccc(OCc3ccccc3)cc2)c([N+](=O)[O-])c1,T/C,[12],86 % of control
CNC(=S)n1cncn1,T/C,"dose: 100.0 mg/kg/injection, schedule: Q01DX009 (ip), vehicle: saline",91 % of control
same,T/C,[13],108 % of control
same,T/C,"dose: 400.0 mg/kg/injection, schedule: Q01DX009 (ip), vehicle: saline",92 % of control
C#C[C@]1(O)CC[C@H]2[C@@H]3CCc4cc(O)ccc4[C@H]3CC[C@@]21C,T/C,"dose: 62.5 mg/kg/injection, schedule: Q04DX003 (sc), vehicle: steriod suspending solution",96 % of control
same,T/C,"dose: 125.0 mg/kg/injection, schedule: Q04DX003 (sc), vehicle: steriod suspending solution",100 % of control
same,T/C,"dose: 250.0 mg/kg/injection, schedule: Q04DX003 (sc), vehicle: steriod suspending solution",97 % of control
same,T/C,"dose: 500.0 mg/kg/injection, schedule: Q04DX003 (sc), vehicle: steriod suspending solution",99 % of control
C/C(CCl)=N\Nc1ccc([N+](=O)[O-])cc1[N+](=O)[O-],T/C,"dose: 100.0 mg/kg/injection, schedule: Q01DX001 (ip), vehicle: saline with Tween-80",101 % of control
same,T/C,"dose: 200.0 mg/kg/injection, schedule: Q01DX001 (ip), vehicle: saline with Tween-80",98 % of control
COC(=O)C(Nc1ccc([N+](=O)[O-])cc1[N+](=O)[O-])C(C)O (stereo unspecified),T/C,[12],104 % of control
same,T/C,"dose: 200.0 mg/kg/injection, schedule: Q01DX001 (ip), vehicle: other",101 % of control
same,T/C,"dose: 400.0 mg/kg/injection, schedule: Q01DX001 (ip), vehicle: other",111 % of control
COC(OC(CO)C(O)S(=O)(=O)O)C(O)S(=O)(=O)O (stereo unspecified),T/C,"dose: 12.5 mg/kg/injection, schedule: Q03HX008 (ip), vehicle: saline",100 % of control
same,T/C,"dose: 12.5 mg/kg/injection, schedule: Q03HX016 (ip), vehicle: saline",97 % of control
same,T/C,"dose: 12.5 mg/kg/injection, schedule: Q03HX024 (ip), vehicle: saline",102 % of control
same,T/C,"dose: 25.0 mg/kg/injection, schedule: Q03HX008 (ip), vehicle: saline",97 % of control
same,T/C,"dose: 25.0 mg/kg/injection, schedule: Q03HX016 (ip), vehicle: saline",102 % of control
same,T/C,"dose: 25.0 mg/kg/injection, schedule: Q03HX024 (ip), vehicle: saline",107 % of control
same,T/C,"dose: 35.0 mg/kg/injection, schedule: Q01DX001 (ip), vehicle: saline",105 % of control and 114 % of control
same,T/C,"dose: 35.0 mg/kg/injection, schedule: Q01DX009 (ip), vehicle: saline",123 % of control
same,T/C,"dose: 50.0 mg/kg/injection, schedule: Q01DX009 (sc), vehicle: saline",107 % of control
same,T/C,"dose: 50.0 mg/kg/injection, schedule: Q03HX008 (ip), vehicle: saline",117 % of control
same,T/C,"dose: 50.0 mg/kg/injection, schedule: Q03HX016 (ip), vehicle: saline",113 % of control
same,T/C,"dose: 50.0 mg/kg/injection, schedule: Q03HX024 (ip), vehicle: saline",122 % of control
same,T/C,"dose: 70.0 mg/kg/injection, schedule: Q01DX001 (ip), vehicle: saline",112 % of control and 121 % of control
same,T/C,"dose: 100.0 mg/kg/injection, schedule: Q01DX001 (ip), vehicle: saline",244 % of control
same,T/C,"dose: 100.0 mg/kg/injection, schedule: Q01DX009 (oral), vehicle: saline",107 % of control
same,T/C,"dose: 100.0 mg/kg/injection, schedule: Q01DX009 (sc), vehicle: saline",115 % of control
same,T/C,"dose: 100.0 mg/kg/injection, schedule: Q03HX008 (ip), vehicle: saline",152 % of control
same,T/C,"dose: 100.0 mg/kg/injection, schedule: Q03HX024 (ip), vehicle: saline",167 % of control
same,T/C,"dose: 100.0 mg/kg/injection, schedule: Q04DX003 (ip), vehicle: saline",122 % of control
same,T/C,"dose: 140.0 mg/kg/injection, schedule: Q01DX001 (ip), vehicle: saline",120 % of control and 121 % of control
same,T/C,[13],151 % of control
same,T/C,"dose: 200.0 mg/kg/injection, schedule: Q01DX009 (oral), vehicle: saline",116 % of control
same,T/C,"dose: 200.0 mg/kg/injection, schedule: Q01DX009 (sc), vehicle: saline",113 % of control
same,T/C,"dose: 280.0 mg/kg/injection, schedule: Q01DX001 (ip), vehicle: saline",124 % of control
same,T/C,"dose: 280.0 mg/kg/injection, schedule: Q01DX009 (ip), vehicle: saline",152 % of control
same,T/C,"dose: 400.0 mg/kg/injection, schedule: Q01DX001 (ip), vehicle: saline",194 % of control
same,T/C,"dose: 400.0 mg/kg/injection, schedule: Q01DX009 (oral), vehicle: saline",116 % of control
same,T/C,"dose: 400.0 mg/kg/injection, schedule: Q04DX003 (ip), vehicle: saline",151 % of control
same,T/C,"dose: 800.0 mg/kg/injection, schedule: Q01DX009 (oral), vehicle: saline",103 % of control
CCOC(=O)/C=C\c1c(OC)nc2ccccn2c1=O (tested in a mixture with another compound),T/C,[1],101 % of control
same,T/C,[2],94 % of control
same,T/C,[4],100 % of control
same,T/C,[6],92 % of control
same,T/C,[8],101 % of control
same,T/C,[10],95 % of control
COC1CC(N=[N+]=[N-])C(OS(C)(=O)=O)C(C)O1 (stereo unspecified),T/C,"dose: 100.0 mg/kg/injection, schedule: Q01DX001 (ip), vehicle: carboxymethylcellulose (CMC)",98 % of control
same,T/C,"dose: 100.0 mg/kg/injection, schedule: Q01DX009 (ip), vehicle: saline with Tween-80",109 % of control
same,T/C,[3],107 % of control
same,T/C,"dose: 200.0 mg/kg/injection, schedule: Q01DX001 (ip), vehicle: carboxymethylcellulose (CMC)",106 % of control
same,T/C,[5],94 % of control
same,T/C,[7],107 % of control
same,T/C,"dose: 400.0 mg/kg/injection, schedule: Q01DX001 (ip), vehicle: carboxymethylcellulose (CMC)",98 % of control
same,T/C,[9],109 % of control
same,T/C,[11],108 % of control
NC1NC(=O)C(CCCOc2ccc([N+](=O)[O-])cc2)C(c2ccccc2)N1 (stereo unspecified),T/C,[1],91 % of control
same,T/C,[4],110 % of control
same,T/C,[8],89 % of control
CCCCN1C(=S)NC(C)(C)C=C1C,T/C,"dose: 12.5 mg/kg/injection, schedule: Q04DX003 (ip), vehicle: saline with Tween-80",95 % of control
same,T/C,"dose: 25.0 mg/kg/injection, schedule: Q04DX003 (ip), vehicle: saline with Tween-80",98 % of control
same,T/C,"dose: 50.0 mg/kg/injection, schedule: Q04DX003 (ip), vehicle: saline with Tween-80",96 % of control
CCC1N2CCc3cc(OC)c(OC)cc3C2CCC1(O)Cc1ccccn1 (stereo unspecified),T/C,"dose: 100.0 mg/kg/injection, schedule: Q04DX003 (ip), vehicle: carboxymethylcellulose (CMC)",101 % of control
same,T/C,"dose: 200.0 mg/kg/injection, schedule: Q04DX003 (ip), vehicle: carboxymethylcellulose (CMC)",101 % of control
